Values quoted from earlier work in patent US20210145768A1, “MODULATING IMMUNE RESPONSE VIA TARGETING OF OLFACTORY RECEPTOR ACTIVITY” (La Jolla Institute for Allergy and Immunology, priority 2018, published 2021).

test system: olfactory receptors; conditions: odorant (agonist) : olfactory receptor pair; cited from earlier work

| Structure (SMILES) | Olfactory receptor agonized by the odorant (agonist) |
| --- | --- |
| CC1=CCC(CCC(C)CO)C1(C)C (stereo not drawn) [Brahmanol] | OR2AT4 |
| CCCCCOC(=O)CCC [amyl butyrate] | OR2AG1 |
| O=C(O)CCCCCCCC(=O)O [azelaic acid] | Olfr544 (human unknown) |
